In general, pIC50 refers to −log10 of the IC50, conventionally taken in molar units.

pIC50: −log10 of the molar value.

The target of the first assay is T1, Cox-2 (Homo sapiens, UniProt P35354).
T1 construct: endogenous in cells; host or cells: fresh heparinized human whole blood from volunteers, stimulated with LPS
T1 sequence (P35354 18-604 limits assumed): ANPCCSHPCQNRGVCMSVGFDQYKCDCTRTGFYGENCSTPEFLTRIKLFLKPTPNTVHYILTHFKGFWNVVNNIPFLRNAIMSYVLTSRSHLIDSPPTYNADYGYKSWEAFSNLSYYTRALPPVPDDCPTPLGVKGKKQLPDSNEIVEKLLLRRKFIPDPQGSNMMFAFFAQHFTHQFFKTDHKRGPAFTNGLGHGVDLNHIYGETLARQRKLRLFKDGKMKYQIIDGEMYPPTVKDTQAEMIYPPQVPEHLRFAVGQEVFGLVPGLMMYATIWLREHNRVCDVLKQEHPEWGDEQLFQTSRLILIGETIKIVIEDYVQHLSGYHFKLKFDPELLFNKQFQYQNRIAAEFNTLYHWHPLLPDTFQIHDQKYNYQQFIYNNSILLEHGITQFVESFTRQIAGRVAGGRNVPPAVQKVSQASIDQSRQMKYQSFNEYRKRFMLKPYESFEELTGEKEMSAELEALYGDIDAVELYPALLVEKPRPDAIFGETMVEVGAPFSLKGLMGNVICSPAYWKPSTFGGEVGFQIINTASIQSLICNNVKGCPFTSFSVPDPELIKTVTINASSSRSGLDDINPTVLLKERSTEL
Nature of the assay: Human whole blood assay, Cox-2 (LPS-induced PGE2 production). Type of assay: cell-based. The note with it: LPS 100 µg/ml, 24 hours at 37 °C, PGE2 by radioimmunoassay, read-out: HWB Cox-2 IC50. As to the method:
(§1) Human whole blood provides a protein and cell-rich milieu appropriate for the study of biochemical efficacy of anti-inflammatory compounds such as selective Cox-2 inhibitors. […] This is consistent with the observation that Cox-2 inhibitors have no effect on PGE2 production in normal blood. These inhibitors are active only after incubation of human whole blood with LPS (lipopolysaccharide), which induces Cox-2. This assay can be used to evaluate the inhibitory effect of selective Cox-2 inhibitors on PGE2 production: As well, platelets in whole blood contain a large amount of the Cox-1 enzyme. Immediately following blood clotting, platelets are activated through a thrombin-mediated mechanism. This reaction results in the production of thromboxane B2 (TxB2) via activation of Cox-1. Thus, the effect of test compounds on TxB2 levels levels following blood clotting can be examined and used as an index for Cox-1 activity. Therefore, the degree of selectivity by the test compound can be determined by measuring the levels of PGE2 after LPS induction (Cox-2) and TxB2 following blood clotting (Cox-1) in the same assay.
Fresh blood was collected in heparinized tubes by venipuncture from both male and female volunteers. The subjects had no apparent inflammatory conditions and had not taken any NSAIDs for at least 7 days prior to blood collection. Plasma was immediately obtained from a 2mL blood aliquot to use as blank (basal levels of PGE2). The remaining blood was incubated with LPS (100 µg/ml final concentration, Sigma Chem, #L-2630 from E. coli; diluted in 0.1% BSA-Phosphate buffered saline) for 5 minutes at room temperature. Five hundred µL aliquots of blood were incubated with either 2 µL vehicle (DMSO) or 2 µL of a test compound at final concentrations varying from 10nM to 30µM for 24 hours at 37 °C. At the end of the incubation, the blood was centrifuged at 12,000 x g for 5 minutes to obtain plasma. A 100 µL aliquot of plasma was mixed with 400 µL of methanol for protein precipitation. The supernatant was obtained and was assayed for PGE2 using a radioimmunoassay kit (Amersham, RPA#530) after conversion of PGE2 to its methyl oximate derivative according to the manufacturer's procedure.
(§2) Compounds of the present invention are inhibitors of cyclooxygenase-2 and are thereby useful in the treatment of cyclooxygenase-2 mediated diseases as enumerated above. The activities of the compounds against cyclooxygenase may be seen in the representative results shown below. In the assay, inhibition is determined by measuring the amount of prostaglandin E2 (PGE2) synthesized in the presence of arachidonic acid, cyclooxygenase-1 or cyclooxygenase-2 and a putative inhibitor. The IC50 values represent the concentration of putative inhibitor required to return PGE2 synthesis to 50% of that obtained as compared to the uninhibited control.
In the case of `COc1cccc(C2=C(c3ccc(S(C)(=O)=O)cc3)C(C)(C)OC2=O)c1` [Example 2, 5,5-Dimethyl-3-(3-methoxyphenyl)-4-(4-(methylsulfonyl)phenyl)-2-(5H)-furanone], the pIC50 was 6.09.
In the case of `CS(=O)(=O)c1ccc(C2=C(c3ccccc3)C(=O)OC2(CF)CF)cc1` [Example 14, 5,5-Bisfluoromethyl-3-phenyl-4-(4-(methylsulfonyl)phenyl)-2-(5H)-furanone], the pIC50 is 5.96.
For the molecule `CC1(C)CC(c2ccc(S(C)(=O)=O)cc2)=C(c2ccccc2)C1=O` [Example 11, 5,5-Dimethyl-3-(4-(methylsulfonyl)phenyl)-2-phenylcyclopent-2-enone], the pIC50 is 7.22.
Regarding `CS(=O)(=O)c1ccc(C2=C(c3ccccc3)C(=O)OC23CC3)cc1` [Example 13, 7-(4-(Methylsulfonyl)phenyl)-6-phenyl-4-oxa-spiro[2,4]-hept-6-en-5-one], the pIC50 is 6.22.
`CC1(C)OC(=O)C(c2ccccc2)=C1c1ccc(S(C)(=O)=O)cc1` [Example 4, 5,5-Dimethyl-4-(4-(methylsulfonyl)phenyl)-3-phenyl-2-(5H)-furanone]: the pIC50 was 6.77.
For the molecule `CS(=O)(=O)c1ccc(C2=C(c3ccccc3)C(=O)OC23CCCC3)cc1` [Example 10, 4-(4-(Methylsulfonyl)phenyl)-3-phenyl-1-oxa-spiro[4,4]non-3-en-2-one], the pIC50 is 6.43.

The target of a further assay is T2, Cox-1 (Homo sapiens, UniProt P23219).
T2 construct: platelets in whole blood contain a large amount of the Cox-1 enzyme; endogenous in cells; host or cells: platelets in fresh human whole blood, no anticoagulant, clotting for 1 hour at 37 °C
T2 sequence (P23219 24-599): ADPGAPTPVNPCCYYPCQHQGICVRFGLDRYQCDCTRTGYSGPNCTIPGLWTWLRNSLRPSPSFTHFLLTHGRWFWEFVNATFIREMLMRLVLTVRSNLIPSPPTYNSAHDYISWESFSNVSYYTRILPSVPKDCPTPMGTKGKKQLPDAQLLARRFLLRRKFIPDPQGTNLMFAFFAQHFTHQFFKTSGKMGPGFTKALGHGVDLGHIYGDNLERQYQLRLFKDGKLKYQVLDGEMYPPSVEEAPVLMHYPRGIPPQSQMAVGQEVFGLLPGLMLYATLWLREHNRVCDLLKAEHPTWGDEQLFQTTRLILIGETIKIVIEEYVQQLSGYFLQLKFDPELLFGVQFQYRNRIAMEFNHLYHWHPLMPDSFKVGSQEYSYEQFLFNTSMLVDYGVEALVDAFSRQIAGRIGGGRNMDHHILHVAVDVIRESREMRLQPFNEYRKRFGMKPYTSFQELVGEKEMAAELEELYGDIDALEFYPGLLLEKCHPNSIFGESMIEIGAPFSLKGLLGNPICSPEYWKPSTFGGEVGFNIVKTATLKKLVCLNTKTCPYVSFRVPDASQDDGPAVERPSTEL
Briefly: Human whole blood assay, Cox-1 (clotting-induced TxB2 production). Type of assay: cell-based. The following applies: clotting 1 hour at 37 °C, TxB2 by enzyme immunoassay, read-out: HWB Cox-1 IC50. The method, then: as §1
Fresh blood was collected into vacutainers containing no anticoagulants. Aliquots of 500 µL were immediately transferred to siliconized microcentrifuge tubes preloaded with 2 µL of either DMSO or a test compound at final concentrations varying from 10nM to 30 µM. The tubes were vortexed and incubated at 37 °C for 1 hour to allow blood to clot. At the end of incubation, serum was obtained by centrifugation (12,000 x g for 5 min.). A 100 µL aliquot of serum was mixed with 400 µL of methanol for protein precipitation. The supernatant was obtained and was assayed for TxB2 using a enzyme immunoassay kit (Cayman, #519031) according to the manufacturer's instruction.
as §2
With `COc1cccc(C2=C(c3ccc(S(C)(=O)=O)cc3)C(C)(C)OC2=O)c1` [Example 2, 5,5-Dimethyl-3-(3-methoxyphenyl)-4-(4-(methylsulfonyl)phenyl)-2-(5H)-furanone], the pIC50 is below 4.52.
On to `CS(=O)(=O)c1ccc(C2=C(c3ccccc3)C(=O)OC2(CF)CF)cc1` [Example 14, 5,5-Bisfluoromethyl-3-phenyl-4-(4-(methylsulfonyl)phenyl)-2-(5H)-furanone], for which the pIC50 was below 4.52.
Same read-out and setting: next, `CC1(C)CC(c2ccc(S(C)(=O)=O)cc2)=C(c2ccccc2)C1=O` [Example 11, 5,5-Dimethyl-3-(4-(methylsulfonyl)phenyl)-2-phenylcyclopent-2-enone]: 5.66; `CS(=O)(=O)c1ccc(C2=C(c3ccccc3)C(=O)OC23CC3)cc1` [Example 13, 7-(4-(Methylsulfonyl)phenyl)-6-phenyl-4-oxa-spiro[2,4]-hept-6-en-5-one]: below 4.52; `CC1(C)OC(=O)C(c2ccccc2)=C1c1ccc(S(C)(=O)=O)cc1` [Example 4, 5,5-Dimethyl-4-(4-(methylsulfonyl)phenyl)-3-phenyl-2-(5H)-furanone]: below 4.52.
Still for that read-out and setting: to `CS(=O)(=O)c1ccc(C2=C(c3ccccc3)C(=O)OC23CCCC3)cc1` [Example 10, 4-(4-(Methylsulfonyl)phenyl)-3-phenyl-1-oxa-spiro[4,4]non-3-en-2-one] belongs 4.52.

In another assay the test system is Rat Paw Edema. Briefly: Rat paw edema assay (carrageenan-induced). Type of assay: in vivo, Male Sprague-Dawley rats. The note with it: po, 1 hr before subplantar carrageenan, paw volume 3 hr later. The method, then:
Male Sprague-Dawley rats (150 - 200 g) were fasted overnight and were given po either vehicle (1% methocel or 5% Tween 80) or a test compound. One hr later, a line was drawn using a permanent marker at the level above the ankle in one hind paw to define the area of the paw to be monitored. The paw volume (V0) was measured using a plethysmometer (Ugo-Basile, Italy) based on the principle of water displacement The animals were then injected subplantarly with 50 µl of 1% carrageenan solution in saline (FMC Corp, Maine) into the paw using an insulin syringe with a 25-gauge needle (i.e. 500 µg carrageenan per paw). Three hr later, the paw volume (V3) was measured and the increases in paw volume (V3 - V0) were calculated. The animals were sacrificed by CO2 aphyxiation and the absence or presence of stomach lesions scored. Data were compared with the vehicle-control values and percent inhibition calculated. Since a maximum of 60-70% inhibition (paw edema) was obtained with standard NSAIDs, ED30 values were used for comparison. All treatment groups were coded to eliminate observer bias.
(In general: In the carrageenan paw model, swelling and tenderness develop within hours.)
Molecule `COc1cccc(C2=C(c3ccc(S(C)(=O)=O)cc3)C(C)(C)OC2=O)c1` [Example 2, 5,5-Dimethyl-3-(3-methoxyphenyl)-4-(4-(methylsulfonyl)phenyl)-2-(5H)-furanone] registered an ED30 of 0.3 mg/kg.
The same measure, in the same setting: next, `CS(=O)(=O)c1ccc(C2=C(c3ccccc3)C(=O)OC2(CF)CF)cc1` [Example 14, 5,5-Bisfluoromethyl-3-phenyl-4-(4-(methylsulfonyl)phenyl)-2-(5H)-furanone]: 0.62 mg/kg; `CC1(C)CC(c2ccc(S(C)(=O)=O)cc2)=C(c2ccccc2)C1=O` [Example 11, 5,5-Dimethyl-3-(4-(methylsulfonyl)phenyl)-2-phenylcyclopent-2-enone]: 1.17 mg/kg.
Consider `CS(=O)(=O)c1ccc(C2=C(c3ccccc3)C(=O)OC23CC3)cc1` [Example 13, 7-(4-(Methylsulfonyl)phenyl)-6-phenyl-4-oxa-spiro[2,4]-hept-6-en-5-one], for which the ED30 was 0.3 mg/kg.
Regarding `CC1(C)OC(=O)C(c2ccccc2)=C1c1ccc(S(C)(=O)=O)cc1` [Example 4, 5,5-Dimethyl-4-(4-(methylsulfonyl)phenyl)-3-phenyl-2-(5H)-furanone], the ED30 is 0.26 mg/kg.
Regarding `CS(=O)(=O)c1ccc(C2=C(c3ccccc3)C(=O)OC23CCCC3)cc1` [Example 10, 4-(4-(Methylsulfonyl)phenyl)-3-phenyl-1-oxa-spiro[4,4]non-3-en-2-one], the ED30 came out at 0.41 mg/kg.

The record behind these values is patent EP0799218B1, “DIARYL-2-(5H)-FURANONES AS COX-2 INHIBITORS” (Merck Frosst Canada & Co., priority 1994, dated 1996).
